Results: patent publication US7915257B2, “Use of triazinetrione sulfones for combating coccidiosis” (Bayer Animal Health GmbH, priority 2000, dated 2011)
Where two headings read alike, the source gives them in different places.

Experiments:
[1] = system: Isospora suis; conditions: experimentally infected piglets; cited from earlier work
[2] = system: Eimeria spp. (principal species E. ovinoidalis and E. crandallis); assay: Field trial, treatment of natural coccidiosis infections of grazing lambs; type: in vivo, Sheep; conditions: 5% w/v suspension as drench on day 7; toltrazuril 20 mg/kg, ponazuril 10 and 20 mg/kg; low infection pressure
Protocol: B. Field Trial of the Efficacy of Ponazuril Compared with Toltrazuril for the Treatment of Natural Infections of Grazing Lambs with Coccidiosis:
The aim of the trials was to compare toltrazuril and ponazuril for efficacy on natural infections with pathogens of the Eimeria family.
The active ingredients were compared in three consecutive experiments: • Experiment 1: untreated control—toltrazuril 20 mg/kg—ponazuril 20 mg/kg • Experiment 2: untreated control—ponazuril 20 mg/kg • Experiment 3: untreated control—toltrazuril 20 mg/kg—ponazuril 10 mg/kg.
The oocyst excretion and the consistency of the faeces were used as main parameters. The weight of the stock was likewise checked occasionally.

[3] = Acute oral toxicity (LD50 rat, oral); type: in vivo; conditions: for NOEL: LD50 rat, oral investigation; for LD50 rat, oral: printed in column Dosage (NOEL)
Protocol: (§1) The following toxicity data were determined in accordance with OECD/GLP guidelines, in particular OECD 414, 401 and 408. The investigations of the teratogenicity of the compounds was carried out in accordance with the US guidelines—“Teratogenicity study”, Guidelines for Registering Pesticides in the U.S.A., U.S. Environmental Protection Agency, Hazard Evaluation: Human and 10 Domestic Animals. U.S. Federal Register, Vol. 43, paragraph 163.83-3, adopted November 1982.

[4] = system: Isospora suis; conditions: coccidiosis (Isospora suis) in pigs; cited from earlier work
[5] = in vivo
Protocol: as §1

[6] = system: Eimeria tenella, E. maxima and E. acervulina; assay: Efficacy of ponazuril on artificially induced mixed infection of chickens, cage housing; type: in vivo
Protocol: Groups each of 44 birds (4 replicates per treatment of 11 birds in each case) were formed and, on day 14, infected with sporulated oocysts. Ponazuril was administered each day on day 10-24 or 17-24. Three dosages in the feed were used in both treatment periods: 5 ppm, 10 ppm and 20 ppm. The result of the treatment was determined by various clinical and parasitological parameters, including the mortality caused by the coccidiosis and the oocyst excretion in the faeces.

Row | SMILES | prevention of disease [1] | efficacy (oocyst excretion, consistency of the faeces) [2] | NOEL [3] | LD50 rat, oral [3] | NOEL ([5]; dog) | NOEL ([5]; rabbit) | NOEL ([5]; rat) | NOEL ([5]; rat, 90 days) | other results
1 | CC[C@@]1([C@@H]2O[C@@H]([C@H]3O[C@@](O)(CO)[C@H](C)C[C@@H]3C)C[C@@H]2C)CC[C@H]([C@]2(C)CC[C@]3(C[C@H](O)[C@@H](C)[C@@H]([C@@H](C)[C@@H](OC)[C@H](C)C(=O)O)O3)O2)O1 [monensin] | not possible to prevent disease | – | – | – | – | – | – | – | –
2 | CCCc1ncc(C[n+]2ccccc2C)c(N)n1 [amprolium] | not possible to prevent disease | – | – | – | – | – | – | – | –
3 | Cc1cc(-n2c(=O)[nH]c(=O)n(C)c2=O)ccc1Oc1ccc(SC(F)(F)F)cc1 [toltrazuril] | – | completely effective | <1000 mg/kg of body weight | 1600-5000 mg/kg mg/kg of body weight | 1.5 mg/kg of body weight | 2.0 mg/kg of body weight | 1.0 mg/kg of body weight | 1.1 mg/kg of body weight | suitability for treating coccidiosis [4]: suitable for treating coccidiosis
4 | O=C1OCCN1/N=C/c1ccc([N+](=O)[O-])o1 [furazolidone] | not possible to prevent disease | – | – | – | – | – | – | – | –
5 | Cc1cc(-n2c(=O)[nH]c(=O)n(C)c2=O)ccc1Oc1ccc(S(=O)(=O)C(F)(F)F)cc1 [ponazuril] | – | completely effective | 5000 mg/kg of body weight | >5000 mg/kg of body weight | 8.3 mg/kg of body weight | 30 mg/kg of body weight | 90 mg/kg of body weight | 11.2 mg/kg of body weight | control of the infection ([6]; 5, 10 and 20 ppm in the feed, daily on day 10-24 or 17-24, infection day 14): possible to control the infection with all dosages and treatment schedules; parasitological findings (oocyst excretion and number of lesions) ([6]; early start of the treatment): reduced the parasitological findings significantly; technical parameters (body weight gain and feed conversion) ([6]; early start of the treatment): improved the technical parameters; dosage with best results ([6]; highest dosage, 20 mg of ponazuril in the feed (approx. 3.5 mg/kg of body weight and day)): best results
